Here are results for 5 molecules from article PMC6689897, “Drugging an undruggable pocket on KRAS” (Proceedings of the National Academy of Sciences of the …, 2019).

The structures appear in SMILES notation.

The target in this test is GCP-KRASG12D (Homo sapiens, UniProt P01116, G12D). Nature of the test: HSQC NMR KD of fragment hits. The format is binding. The settings on record: fragment screen hits, active form of KRAS. An excerpt: Next, we attempted to identify compounds that bind to GTP-KRAS via fragment-based screening ([21]–[23]). A library of 1,800 fragments was screened using both saturation transfer difference NMR ([24], [25]) and microscale thermophoresis ([26]) using KRAS^G12V-phosphomethylphosphonic acid guanylate ester (GCP-KRAS^G12V), from which 16 fragments were found and subsequently validated (hit rate 0.9%) by the observation of cross-peak shifts in the 2D ^1H/^15N heteronuclear single-quantum correlation (HSQC) NMR spectra of GCP-KRAS^G12D. We also screened a library of 13,800 compounds using uniformly ^15N-labeled GNP-KRAS by HSQC NMR experiments. Representatives of some of the fragments which bound the active form of KRAS from the 2 screens are depicted in Fig. 1A. […]
98 Measurement of dissociation constants KD for the compounds synthesized. NMR
99 was initially the only method that could provide K Ds for the weakly binding molecules to
100 support compound optimization. 1H/15N SoFast HMQC experiments(3) were recorded in
101 3mm NMR tubes (170µL filling) at a protein concentration of 70-100µM. Spectra were
102 recorded on a Avance III 700MHz spectrometer equipped with a cryogenically cooled
103 5mm TCI probe and 48 scans, 128 f1 increments and 2k data points in f2. Total
104 acquisition time was 22 minutes. 4 – 6 titration points were performed w ith individual
105 samples for each titration point made from 50mM DMSO -d6 stock solutions. Total
106 DMSO-d6 concentration was kept constant by backfilling every sample to a total of 4%
107 DMSO. KDs were calculated from the differences in chemical shift induced by t he small
108 molecules upon interacting with the protein. Average chemical shifts from the 1H and 15N
109 dimension were calculated according to the following equation:
110 ∆δobs = √[δH2 + (α ∙δN)2] with α set to 0.14
111 The Δδobs values at the respective ligand concentrations and the total concentration
112 of protein allow a fit to the KD value of the ligand as long as it is binding under fast
113 exchange conditions as was the case for most of the compounds tested.(4) Usually Δδobs
115 following equation was used to determine the individual KDs: […]
121 HEPES, 150 mM NaCl, 3% DMSO, pH 7.5. All measurements were carried out at 25°C.
122 Titrations were performed in inverse mode. The cell was loaded with compound solutions
123 in the range of 10 to 100 µM. All injections were performed using an initial injection of
124 0.5 μL followed by 19 injections of 2 μL of protein in the range of 130-500 µM. The data
125 were analyzed with the MicroCal PEAQ-ITC analysis software package. The first data

Chain of GCP-KRASG12D (P01116 1-169 isoform P01116-2 G12D): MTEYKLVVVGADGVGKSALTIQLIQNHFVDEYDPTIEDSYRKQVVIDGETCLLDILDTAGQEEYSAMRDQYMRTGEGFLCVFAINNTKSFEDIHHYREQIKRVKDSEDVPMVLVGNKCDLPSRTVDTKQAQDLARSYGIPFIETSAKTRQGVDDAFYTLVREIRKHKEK

As a reminder, the Kd is the constant that tells how readily two partners part at equilibrium. A lower Kd goes with higher affinity. On to `Clc1ccc2[nH]c3c(c2c1)CNCC3` [Compound 2], for which the Kd was over 2000 µM. The molecule `O=C(c1c[nH]c2ccccc12)N1CCNCC1` [Compound 3] gave a Kd of over 2000 µM. To `Nc1nc2ccccc2n1Cc1ccccc1` [Compound 4] belongs over 2000 µM; to `c1ccc2c(CN3CCOCC3)c[nH]c2c1` [Compound 6], over 5000 µM.

Turning to `Nc1ccc2nc(Cc3c[nH]c4ccccc34)[nH]c2c1` [Compound 7], the Kd came out at 1300 µM.
